The values below come from US4444767A, “Derivatives of 3-amino-pregn-5-ene” (Roussel Uclaf, priority 1981, dated 1984).

Structures can show the parent of a compound that is named as a salt. A value given as a limit tells only on which side of the number the result lay.

One series deals with mice. Kind of series: Acute toxicity. The class given is in vivo. Conditions: oral.
For the next series, the system named is immunitary systems. Kind of series: Test of Rosettes to sheep red corpuscles. The class given is in vivo. Conditions: Rattus norvegicus, Splenocyte; 3 month old male rats, oral daily from day -1 to day 1; splenocytes after 7 days; read-out: immunostimulating dose (dose which multiplies by 2 the percentage of rosettes observed in the control animals). How it is done: The administration to animals of a product capable of stimulating the immunitary systems leads to an increase of their capacity of reaction to the injection of a immunogenic product. 3 month old male rats were sensitized by intraperitoneal administration of sheep erythrocytoes on day 0 and 7 days later, the spleen was removed and splenocytes were placed in contact with sheep erythrocytes. The percentage of leucocytes around which the erythrocytes were in the form of rosettes was determined. The test compounds were orally administered daily from day-1 to day 1 and immunostimulating dose is the dose of product which multiplies by 2 the percentage of rosettes observed in the control animals.

Turning to `CC(=O)[C@H]1CC[C@H]2[C@@H]3CC=C4C[C@H](NC(=O)[C@H](C)N)CC[C@]4(C)[C@H]3CC[C@]12C` [Example 3, (2S)-2-amino-N-(20-oxopregn-5-ene 3α-yl)propionamide hydrochloride], the “LD0 (maximum dose which did not cause any mortality after 8 days)” value in the series with mice is recorded as greater than 400 mg/kg. Moreover, in the series with immunitary systems, the ED (2-fold rosettes) was 2 mg/kg.

Consider `CC(=O)[C@H]1CC[C@H]2[C@@H]3CC=C4C[C@H](NC(=O)CN)CC[C@]4(C)[C@H]3CC[C@]12C` [Example 4, 2-amino N-(20 oxopregn-5-ene 3α-yl) acetamide hydrochloride], for which the “LD0 (maximum dose which did not cause any mortality after 8 days)” value in the series on mice amounted to 600 mg/kg. The ED (2-fold rosettes) with immunitary systems came out at 5 mg/kg.

Consider `C[C@H](O)[C@H]1CC[C@H]2[C@@H]3CC=C4C[C@H](NC(=O)CN)CC[C@]4(C)[C@H]3CC[C@]12C.Cl` [Example 6, 2-amino-N-[(20S) 20-hydroxy-pregn-5-ene-3α-yl]-acetamide hydrochloride], for which the “LD0 (maximum dose which did not cause any mortality after 8 days)” value in the series on mice is greater than 400 mg/kg.
